Results reported in ChEMBL document CHEMBL1122312, “Synthesis and 5-lipoxygenase inhibitory activities of eicosanoid compounds” (J Med Chem, 1983).

Tested on: Arachidonate 5-lipoxygenase (Cavia porcellus)
Test: Inhibitory activity against 5-lipoxygenase at a dose of 0.1 mM

Structure (SMILES)	inhibition [%]
CCCCCCCCCCCCCCC1CC1CCCC(=O)O (stereo in doubt; 23)	49
CCCCC/C=C\C/C=C\C/C=C\C1(/C=C\CCCC(=O)O)CC1	34
CCCCC/C=C\C/C=C\C/C=C\C=C\C(CO)CCCC(=O)O (stereo not given)	47
CCCCC/C=C\C/C=C\C/C=C\C=C\C(=O)CCCC(=O)OC	93
CCCCC/C=C\C\C=C/C=C/C=C/C1CC1CCCCC(=O)O (stereo not given)	86
CCCCCCCCCCCCCCC1CC1CCCC(=O)O (stereo in doubt; 25)	1
CCCCC/C=C\C\C=C/C=C/C=C/[C@@H]1O[C@H]1CCCC(=O)O	78
CCCCC/C=C\C\C=C/C=C/C=C/C1CC1CCCC(=O)O (stereo not given)	98
CCCCC/C=C\C/C=C\C/C=C\CC1CC1CCCC(=O)O (stereo not given)	5
CCCCC/C=C\C\C=C/C=C/C=C/C1SC1CCCC(=O)OC (stereo not given)	60
